Data from patent US20030215531A1, “Compositions and methods of use for extracts of Rutaceae plants” (priority 2000, published 2003).
Entries after “also recorded” stand apart in the source; their conditions may differ. Counter-ions that a name gives are not always drawn.

Key:
rats = assay: formalin test in rats; format: in vivo
Text: The analgesic effects of the extracts of this invention were studied using the formalin test (Dubuisson, D., Dennis, S. G., “The formalin test: a quantitative study of the analgesic effects of morphine, meperidine, and brainstem stimulation in rats and cats,” Pain, 1977, 4, pp. 161-164), a commonly used animal model to study nociceptive processes and analgesic drug effects.
Male Holtzman rats weighing 150-175 g were obtained from Harlan Spraque Dawley (Indianapolis, Ind.) and housed under a 12:12 h light/dark cycle in individual stainless steel cages in a temperature and humidity controlled vivarium. Food and water were available ad libitum. In session one, the animals were allowed to acclimate to the colony room for two days and handled for an additional two days prior to conducting the experiment in order to reduce experimenter-related stress. In session two, animals were allowed to acclimate to the colony room for four days, handled for three days, and acclimated to the apparatus for two days prior to conducting the experiment in order to reduce experimenter-related stress. In both sessions, the animals were food-deprived for 12 h before administering the test articles.
A Plexiglas viewing chamber (30×30×30 cm) was used for data collection.
Naproxen was used as a reference. Samples were tested at a concentration of 100 mg/kg except Formulation J which was tested at 200 mg/kg.
In session one, 10 minutes before the formalin observation period, the formulations were delivered via gavage in a volume of 0.5 ml to obtain a minimum response interval of 30 min between the injection time and the second phase of the formalin response. In session two, formulations were delivered via gavage of 1 ml. Each animal received two formulation dosings before the tests: 70 and 10 minutes before the beginning of the formalin observation period in order to obtain a 90 and 30 min injection intervals before the second phase of the formalin response.
Immediately after administration of 0.05 ml of 2.5% formalin into the hindpaw, rats were placed into 30×30×30 cm Plexiglas observation chamber. The observation session lasted 50 min. A dependent measure was the amount of time in which the injected paw was 1) in a lift position and 2) licked, bitten or shaken across ten 5-min blocks. A composite pain score as a function of ten 5-min blocks was calculated according to the procedures of Watson et al. (Watson, G. S., Sufka, K. J., Coderre, T. J., “Optimal scoring strategies and weights for the formalin test in rats,” Pain, 1997, 70, pp. 53-58). Sample sizes were n=5-6 rats per group. […]
Data were screened for homogeneity of variance and analyzed using repeated measures analysis of variance (ANOVA) and Fisher's LSD procedures.

chicks = conditions: previous research with this chick model (Watson et al., 1996, 1999); cited from earlier work

## COc1ccc2cc3[n+](cc2c1OC)CCc1cc2c(cc1-3)OCO2 [Formulation K, berberine HCl]
rats; session 1, 100 mg/kg by gavage 10 min before observation, HCl, 100 mg/kg
  effect on formalin-induced pain behaviors (CPS), in words: attenuated pain-related behaviors during the second phase; also recorded: reduced pain during the fourth to the tenth time block

## CNC1=Nc2ccc(Cl)cc2C(c2ccccc2)=[N+]([O-])C1 [chlorodiazepoxide, chlordiazepoxide]
chicks
  ED50 in attenuating separation-induced DVoc: 3.75 mg/kg

## Cc1nnc2n1-c1ccc(Cl)cc1C(c1ccccc1)=NC2 [alprazolam]
chicks
  ED50 in attenuating separation-induced DVoc: 0.19 mg/kg

## O=C1Nc2ccc(Cl)cc2C(c2ccccc2Cl)=NC1O (stereo not shown) [lorazepam]
chicks
  ED50 in attenuating separation-induced DVoc: 0.34 mg/kg

## COc1ccc2cc([C@H](C)C(=O)O)ccc2c1 [Naproxen]
rats; session 1, 100 mg/kg by gavage 10 min before observation, 100 mg/kg
  effect on formalin-induced pain behaviors (CPS), in words: did not affect pain behaviors
rats; session 1, 100 mg/kg by gavage 10 min before observation, listed as naproxen, 100 mg/kg
  effect on formalin-induced pain behaviors (CPS), in words: had no effect on pain
rats; session 2, two gavage dosings 70 and 10 min before observation, Naproxen 100 mg, Formulation J 200 mg/kg, b186 prints 100 mg/kg
  effect on formalin-induced pain behaviors (CPS), in words: attenuated the second phase of the formalin response
